From patent US11155557B2, “Pyrazolopyrimidine compounds and methods of use thereof” (Genentech, Inc., priority 2016, dated 2021)
Where two headings read alike, the source gives them in different places.

Experiments:
[1] = target: isolated recombinant JAK2 kinase domain (Homo sapiens (Human), UniProt O60674); experiment: JAK2 enzyme assay (Caliper LabChip, Ki)
Experimental: JAK Enzyme Assays were Carried Out as Follows:
The activity of the isolated recombinant JAK1 and JAK2 kinase domain was measured by monitoring phosphorylation of a peptide derived from JAK3 ([sequence] fluorescently labeled on the N-terminus with 5-carboxyfluorescein) using the Caliper LabChip R technology (Caliper Life Sciences, Hopkinton, Mass.). […] After termination of the kinase reaction, the proportion of phosphorylated product was determined as a fraction of total peptide substrate using the Caliper LabChip R 3000 according to the manufacturer's specifications.

[2] = test system: JAK1-dependent STAT6 phosphorylation in BEAS-2B human bronchial epithelial cells; experiment: JAK1 pathway assay: IL-13 stimulated STAT6 phosphorylation in BEAS-2B cells; assay type: cell-based; conditions: Homo sapiens, BEAS-2B, read-out: IL-13 p-STAT6 BEAS-2B IC50
Summary of the method: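 BEAS-2B bronchial epithelial cells plated one day before, run in complete growth medium. Phospho-STAT6 in lysates measured by MesoScale Discovery; EC50 reported.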

[3] = target: isolated recombinant JAK1 kinase domain (Homo sapiens (Human), UniProt P23458); experiment: JAK1 enzyme assay (Caliper LabChip, Ki); assay type: biochemical
Experimental: The activity of the isolated recombinant JAK1 and JAK2 kinase domain was measured by monitoring phosphorylation of a peptide derived from JAK3 ([…] fluorescently labeled on the N-terminus with 5-carboxyfluorescein) using the Caliper LabChip R technology (Caliper Life Sciences, Hopkinton, Mass.).

[4] = BEAS-2B cells, IL-13 stimulation

isolated recombinant JAK2 kinase domain, sequence (O60674 849-1124): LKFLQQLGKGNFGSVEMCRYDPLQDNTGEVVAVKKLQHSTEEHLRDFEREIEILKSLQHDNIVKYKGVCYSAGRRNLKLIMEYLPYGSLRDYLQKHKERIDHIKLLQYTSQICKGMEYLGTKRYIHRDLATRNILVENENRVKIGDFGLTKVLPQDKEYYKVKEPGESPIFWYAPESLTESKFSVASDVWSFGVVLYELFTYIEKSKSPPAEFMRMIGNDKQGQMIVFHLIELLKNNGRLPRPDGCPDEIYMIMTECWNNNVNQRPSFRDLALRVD
isolated recombinant JAK1 kinase domain, sequence (P23458 875-1153): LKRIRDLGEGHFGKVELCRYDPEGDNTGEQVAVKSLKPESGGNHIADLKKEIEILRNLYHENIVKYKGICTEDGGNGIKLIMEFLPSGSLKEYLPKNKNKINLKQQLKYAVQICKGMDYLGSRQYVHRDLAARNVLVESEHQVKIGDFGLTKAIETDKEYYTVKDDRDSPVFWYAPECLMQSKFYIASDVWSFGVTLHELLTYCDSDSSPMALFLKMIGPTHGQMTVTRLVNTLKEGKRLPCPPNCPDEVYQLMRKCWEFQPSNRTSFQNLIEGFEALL

SMILES | Ki ([1]; read-out: JAK2 Ki) [nM] | IC50 [2, 4] [nM] | Ki [3] [nM] | IC50 [2] [nM] | Ki [1] [nM]
N#Cc1cc2cc(OC(F)F)c(-c3nn(CC(=O)N4CCC(N5CCOCC5)CC4)cc3NC(=O)c3cnn4cccnc34)cc2s1 [Example 55, N-[3-[2-cyano-5-(difluoromethoxy)benzothiophen-6-yl]-1-[2-(4-morpholino-1-piperidyl)-2-oxo-ethyl]pyrazol-4-yl]pyrazolo[1,5-a]pyrimidine-3-carboxamide] | 0.41 | 20 | 0.41 | – | –
NC(=O)c1cc2cc(OC(F)F)c(-c3nn(CC(=O)N4CCC(N5CCOCC5)CC4)cc3NC(=O)c3cnn4cccnc34)cc2s1 [Example 56, N-[3-[2-carbamoyl-5-(difluoromethoxy)benzothiophen-6-yl]-1-[2-(4-morpholino-1-piperidyl)-2-oxo-ethyl]pyrazol-4-yl]pyrazolo[1,5-a]pyrimidine-3-carboxamide] | 0.37 | > 333 | 0.39 | – | –
O=C(Nc1cn(CC(=O)N2CCC(N3CCOCC3)CC2)nc1-c1cc2ccccc2cc1OC(F)F)c1cnn2cccnc12 [Example 57, N-[3-[3-(difluoromethoxy)-2-naphthyl]-1-[2-(4-morpholino-1-piperidyl)-2-oxo-ethyl]pyrazol-4-yl]pyrazolo[1,5-a]pyrimidine-3-carboxamide] | 0.87 | 17 | 0.56 | – | –
O=C(Nc1cn(CC(=O)N2CCC(N3CCOCC3)CC2)nc1-c1cc2c(cc1OC(F)F)NCCS2)c1cnn2cccnc12 [Example 58, N-[3-[6-(difluoromethoxy)-3,4-dihydro-2H-1,4-benzothiazin-7-yl]-1-[2-(4-morpholino-1-piperidyl)-2-oxo-ethyl]pyrazol-4-yl]pyrazolo[1,5-a]pyrimidine-3-carboxamide] | 0.22 | 54 | 0.19 | – | –
O=C(Nc1cn(CC(=O)N2CCC(CN3CCOCC3)CC2)nc1-c1cc2c(cc1OC(F)F)NCCS2)c1cnn2cccnc12 [Example 59, N-[3-[6-(difluoromethoxy)-3,4-dihydro-2H-1,4-benzothiazin-7-yl]-1-[2-[4-(morpholinomethyl)-1-piperidyl]-2-oxo-ethyl]pyrazol-4-yl]pyrazolo[1,5-a]pyrimidine-3-carboxamide] | 0.23 | 25 | 0.22 | – | –
N#Cc1cc2cc(OC(F)F)c(-c3nn(CC(=O)N4CCC(CN5CCOCC5)CC4)cc3NC(=O)c3cnn4cccnc34)cc2s1 [Example 60, N-[3-[2-cyano-5-(difluoromethoxy)benzothiophen-6-yl]-1-[2-[4-(morpholinomethyl)-1-piperidyl]-2-oxo-ethyl]pyrazol-4-yl]pyrazolo[1,5-a]pyrimidine-3-carboxamide] | 0.35 | 12 | 0.36 | – | –
NC(=O)c1cc2cc(OC(F)F)c(-c3nn(CC(=O)N4CCC(CN5CCOCC5)CC4)cc3NC(=O)c3cnn4cccnc34)cc2s1 [Example 61, N-[3-[2-carbamoyl-5-(difluoromethoxy)benzothiophen-6-yl]-1-[2-[4-(morpholinomethyl)-1-piperidyl]-2-oxo-ethyl]pyrazol-4-yl]pyrazolo[1,5-a]pyrimidine-3-carboxamide] | 0.78 | > 333 | 0.64 | – | –
NC(=O)c1cc2cc(OC(F)F)c(-c3nn(CC(=O)N4CCC(=O)CC4)cc3NC(=O)c3cnn4cccnc34)cc2s1 [Example 62, N-[3-[2-carbamoyl-5-(difluoromethoxy)benzothiophen-6-yl]-1-[2-oxo-2-(4-oxo-1-piperidyl)ethyl]pyrazol-4-yl]pyrazolo[1,5-a]pyrimidine-3-carboxamide] | 0.24 | – | 0.38 | > 333 | –
CN(CCC#N)C1CCN(C(=O)Cn2cc(NC(=O)c3cnn4cccnc34)c(-c3cc4ccccc4cc3OC(F)F)n2)CC1 [Example 63, N-[1-[2-[4-[2-cyanoethyl(methyl)amino]-1-piperidyl]-2-oxo-ethyl]-3-[3-(difluoromethoxy)-2-naphthyl]pyrazol-4-yl]pyrazolo[1,5-a]pyrimidine-3-carboxamide] | 0.58 | 14 | 0.4 | – | –
N#CC1(CNC2CCN(C(=O)Cn3cc(NC(=O)c4cnn5cccnc45)c(-c4cc5sc(C(N)=O)cc5cc4OC(F)F)n3)CC2)CC1 [Example 64, N-[3-[2-carbamoyl-5-(difluoromethoxy)benzothiophen-6-yl]-1-[2-[4-[(1-cyanocyclopropyl)methylamino]-1-piperidyl]-2-oxo-ethyl]pyrazol-4-yl]pyrazolo[1,5-a]pyrimidine-3-carboxamide] | 0.35 | > 1000 | 0.29 | – | –
O=C(Nc1cn(CC(=O)N2CCC(CN3CCOCC3)CC2)nc1-c1cc2sccc2cc1OC(F)F)c1cnn2cccnc12 [Example 65, N-[3-[5-(difluoromethoxy)benzothiophen-6-yl]-1-[2-[4-(morpholinomethyl)-1-piperidyl]-2-oxo-ethyl]pyrazol-4-yl]pyrazolo[1,5-a]pyrimidine-3-carboxamide] | 0.6 | 13 | 0.41 | – | –
O=C(Nc1cn(CC(=O)N2CCC(N3CCOCC3)CC2)nc1-c1cc2sccc2cc1OC(F)F)c1cnn2cccnc12 [Example 66, N-[3-[5-(difluoromethoxy)benzothiophen-6-yl]-1-[2-(4-morpholino-1-piperidyl)-2-oxo-ethyl]pyrazol-4-yl]pyrazolo[1,5-a]pyrimidine-3-carboxamide] | 0.49 | 21 | 0.3 | – | –
CCN1CCN(C(=O)Cn2cc(NC(=O)c3cnn4cccnc34)c(-c3cc4ccccc4cc3OC(F)F)n2)CC1 [Example 67, N-[3-[3-(difluoromethoxy)-2-naphthyl]-1-[2-(4-ethylpiperazin-1-yl)-2-oxo-ethyl]pyrazol-4-yl]pyrazolo[1,5-a]pyrimidine-3-carboxamide] | – | 53 | 2.11 | – | 4.07
O=CN1CCN(C(=O)Cn2cc(NC(=O)c3cnn4cccnc34)c(-c3cc4ccccc4cc3OC(F)F)n2)CC1 [Example 68, N-[3-[3-(difluoromethoxy)-2-naphthyl]-1-[2-(4-formylpiperazin-1-yl)-2-oxo-ethyl]pyrazol-4-yl]pyrazolo[1,5-a]pyrimidine-3-carboxamide] | – | 35 | 0.88 | – | 1.62
CN(C)C(=O)CN1CCN(C(=O)Cn2cc(NC(=O)c3cnn4cccnc34)c(-c3cc4ccccc4cc3OC(F)F)n2)CC1 [Example 69, N-[3-[3-(difluoromethoxy)-2-naphthyl]-1-[2-[4-[2-(dimethylamino)-2-oxo-ethyl]piperazin-1-yl]-2-oxo-ethyl]pyrazol-4-yl]pyrazolo[1,5-a]pyrimidine-3-carboxamide] | 0.94 | 152 | 0.44 | – | –
CC(C)(C)OC(=O)N1CCN(C(=O)Cn2cc(NC(=O)c3cnn4cccnc34)c(-c3cc4ccccc4cc3OC(F)F)n2)CC1 [Example 70, tert-butyl 4-[2-[3-[3-(difluoromethoxy)-2-naphthyl]-4-(pyrazolo[1,5-a]pyrimidine-3-carbonylamino)pyrazol-1-yl]acetyl]piperazine-1-carboxylate] | 1.16 | 25 | 0.35 | – | –
O=C(Nc1cn(CC(=O)N2CCNCC2)nc1-c1cc2ccccc2cc1OC(F)F)c1cnn2cccnc12 [Example 71, N-[3-[3-(difluoromethoxy)-2-naphthyl]-1-(2-oxo-2-piperazin-1-yl-ethyl)pyrazol-4-yl]pyrazolo[1,5-a]pyrimidine-3-carboxamide] | 1.6 | 78 | 0.86 | – | –
CN1CCC[C@@H]1Cn1cc(NC(=O)c2cnn3cccnc23)c(-c2cc3c(cc2OC(F)F)NCCS3)n1 [Example 72, N-[3-[6-(difluoromethoxy)-3,4-dihydro-2H-1,4-benzothiazin-7-yl]-1-[[(2R)-1-methylpyrrolidin-2-yl]methyl]pyrazol-4-yl]pyrazolo[1,5-a]pyrimidine-3-carboxamide] | 0.22 | 10 | 0.22 | – | –
CN1CCC[C@@H]1Cn1cc(NC(=O)c2cnn3cccnc23)c(-c2cc3c(cc2OC(F)F)NC(=O)CS3)n1 [Example 73, N-[3-[6-(difluoromethoxy)-3-oxo-4H-1,4-benzothiazin-7-yl]-1-[[(2R)-1-methylpyrrolidin-2-yl]methyl]pyrazol-4-yl]pyrazolo[1,5-a]pyrimidine-3-carboxamide] | 0.19 | 9 | 0.2 | – | –
CN1CCC[C@H]1Cn1cc(NC(=O)c2cnn3cccnc23)c(-c2cc3cn[nH]c3cc2OC(F)F)n1 [Example 76, N-[3-[6-(difluoromethoxy)-1H-indazol-5-yl]-1-[[(2S)-1-methylpyrrolidin-2-yl]methyl]pyrazol-4-yl]pyrazolo[1,5-a]pyrimidine-3-carboxamide] | 0.53 | 17 | 0.48 | – | –
CN1CCC[C@@H]1Cn1cc(NC(=O)c2cnn3cccnc23)c(-c2cc3cn[nH]c3cc2OC(F)F)n1 [Example 77, N-[3-[6-(difluoromethoxy)-1H-indazol-5-yl]-1-[[(2R)-1-methylpyrrolidin-2-yl]methyl]pyrazol-4-yl]pyrazolo[1,5-a]pyrimidine-3-carboxamide] | 0.43 | 9 | 0.28 | – | –
O=C(Nc1cn(CCN[C@@H]2CCOC2)nc1-c1cc2c(cc1OC(F)F)NCCS2)c1cnn2cccnc12 [Example 78, N-[3-[6-(difluoromethoxy)-3,4-dihydro-2H-1,4-benzothiazin-7-yl]-1-[2-[[(3R)-tetrahydrofuran-3-yl]amino]ethyl]pyrazol-4-yl]pyrazolo[1,5-a]pyrimidine-3-carboxamide] | 0.1 | 13 | 0.19 | – | –
